According to US10206394B2, “Herbicidal compounds” (Syngenta Participations AG, priority 2014, dated 2019):
Where two headings read alike, the source gives them in different places.

Tests used:
Assay in all cases: Glasshouse assay for herbicidal activity (pre- and post-emergence), percentage phytotoxicity
Format in all cases: in vivo
[1] = system: Alopecurus myosuroides (ALOMY); conditions: Alopecurus myosuroides
Procedure, shortened: (§1)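 Damage was rated visually as percent phytotoxicity, 100% meaning total kill, 20 days after pre-emergence application (made one day post-sowing) or 15 days after post-emergence application (made about 12 days post-sowing). Plants were grown under 16 h light, 65% humidity, warm species 24/18° C, cool 20/16° C.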

Avena fatua (AVEFA) = conditions: Avena fatua
Procedure, shortened: as §1

[2] = system: Echinochloa crus-galli (ECHCG); conditions: Echinochloa crus-galli
Procedure, shortened: as §1

Lolium perenne (LOLPE) = conditions: Lolium perenne
Procedure, shortened: as §1

[3] = post-emergence, 360 h, POST-emergence, rate 250 g/ha, visual score 15 DAA (100%=total damage, 0%=no damage), read-out: Post-emergence herbicidal activity (percentage phytotoxicity) ALOMY POST
[4] = pre-emergence, 480 h, PRE-emergence, rate 250 g/ha, visual score 20 DAA (100%=total damage, 0%=no damage), read-out: Pre-emergence herbicidal activity (percentage phytotoxicity) ALOMY PRE
[5] = post-emergence, 360 h, POST-emergence, rate 250 g/ha, visual score 15 DAA (100%=total damage, 0%=no damage), read-out: Post-emergence herbicidal activity (percentage phytotoxicity) AVEFA POST
[6] = pre-emergence, 480 h, PRE-emergence, rate 250 g/ha, visual score 20 DAA (100%=total damage, 0%=no damage), read-out: Pre-emergence herbicidal activity (percentage phytotoxicity) AVEFA PRE
[7] = post-emergence, 360 h, POST-emergence, rate 250 g/ha, visual score 15 DAA (100%=total damage, 0%=no damage), read-out: Post-emergence herbicidal activity (percentage phytotoxicity) ECHCG POST
[8] = pre-emergence, 480 h, PRE-emergence, rate 250 g/ha, visual score 20 DAA (100%=total damage, 0%=no damage), read-out: Pre-emergence herbicidal activity (percentage phytotoxicity) ECHCG PRE
[9] = post-emergence, 360 h, POST-emergence, rate 250 g/ha, visual score 15 DAA (100%=total damage, 0%=no damage), read-out: Post-emergence herbicidal activity (percentage phytotoxicity) LOLPE POST
[10] = pre-emergence, 480 h, PRE-emergence, rate 250 g/ha, visual score 20 DAA (100%=total damage, 0%=no damage), read-out: Pre-emergence herbicidal activity (percentage phytotoxicity) LOLPE PRE
[11] = post-emergence, 360 h, Rate 250 g/ha, post-emergence, visual assessment 15 DAA, 100%=total damage, 0%=no damage, read-out: Post-emergence herbicidal activity (percentage phytotoxicity) ALOMY POST
[12] = pre-emergence, 480 h, Rate 250 g/ha, pre-emergence, visual assessment 20 DAA, 100%=total damage, 0%=no damage, read-out: Pre-emergence herbicidal activity (percentage phytotoxicity) ALOMY PRE
[13] = post-emergence, 360 h, Rate 250 g/ha, post-emergence, visual assessment 15 DAA, 100%=total damage, 0%=no damage, read-out: Post-emergence herbicidal activity (percentage phytotoxicity) AVEFA POST
[14] = pre-emergence, 480 h, Rate 250 g/ha, pre-emergence, visual assessment 20 DAA, 100%=total damage, 0%=no damage, read-out: Pre-emergence herbicidal activity (percentage phytotoxicity) AVEFA PRE
[15] = post-emergence, 360 h, Rate 250 g/ha, post-emergence, visual assessment 15 DAA, 100%=total damage, 0%=no damage, read-out: Post-emergence herbicidal activity (percentage phytotoxicity) ECHCG POST
[16] = pre-emergence, 480 h, Rate 250 g/ha, pre-emergence, visual assessment 20 DAA, 100%=total damage, 0%=no damage, read-out: Pre-emergence herbicidal activity (percentage phytotoxicity) ECHCG PRE
[17] = post-emergence, 360 h, Rate 250 g/ha, post-emergence, visual assessment 15 DAA, 100%=total damage, 0%=no damage, read-out: Post-emergence herbicidal activity (percentage phytotoxicity) LOLPE POST
[18] = pre-emergence, 480 h, Rate 250 g/ha, pre-emergence, visual assessment 20 DAA, 100%=total damage, 0%=no damage, read-out: Pre-emergence herbicidal activity (percentage phytotoxicity) LOLPE PRE

| SMILES | pest or weed control at 250 g/ha [1, 3] [%] | pest or weed control at 250 g/ha [1, 4] [%] | pest or weed control at 250 g/ha (Avena fatua (AVEFA); [5]) [%] | pest or weed control at 250 g/ha (Avena fatua (AVEFA); [6]) [%] | pest or weed control at 250 g/ha [2, 7] [%] | pest or weed control at 250 g/ha [2, 8] [%] | pest or weed control at 250 g/ha (Lolium perenne (LOLPE); [9]) [%] | pest or weed control at 250 g/ha (Lolium perenne (LOLPE); [10]) [%] | pest or weed control at 250 g/ha [1, 11] [%] | pest or weed control at 250 g/ha [1, 12] [%] | pest or weed control at 250 g/ha (Avena fatua (AVEFA); [13]) [%] | pest or weed control at 250 g/ha (Avena fatua (AVEFA); [14]) [%] | pest or weed control at 250 g/ha [2, 15] [%] | pest or weed control at 250 g/ha [2, 16] [%] | pest or weed control at 250 g/ha (Lolium perenne (LOLPE); [17]) [%] | pest or weed control at 250 g/ha (Lolium perenne (LOLPE); [18]) [%] |
| --- | --- | --- | --- | --- | --- | --- | --- | --- | --- | --- | --- | --- | --- | --- | --- | --- |
| Cc1cc(-c2ccc(C#N)cn2)cc(C)c1C1C(=O)CC(CC(=O)NC(C)C)C1=O (stereo not drawn) [Compound B320] | 100 | 100 | 100 | 100 | 100 | 100 | 100 | 100 | – | – | – | – | – | – | – | – |
| Cc1cc(-c2ccc(C#N)cn2)cc(C)c1C1C(=O)CC(CC(=O)N2CCOCC2)C1=O (stereo not drawn) [Compound B321] | 90 | 70 | 100 | 80 | 100 | 100 | 90 | 90 | – | – | – | – | – | – | – | – |
| Cc1cc(-c2ccc(Br)cn2)cc(C)c1C1C(=O)CC(CC(=O)NC(C)(C)C)C1=O (stereo not drawn) [Compound B322] | 100 | 90 | 100 | 70 | 100 | 90 | 100 | 90 | – | – | – | – | – | – | – | – |
| CCNC(=O)CC1CC(=O)C(c2c(C)cc(-c3ccc(Br)cn3)cc2C)C1=O (stereo not drawn) [Compound B323] | 100 | 100 | 100 | 90 | 100 | 100 | 100 | 100 | – | – | – | – | – | – | – | – |
| COc1ccc(CNC(=O)CC2CC(=O)C(c3c(C)cc(-c4ccc(C#N)cn4)cc3C)C2=O)cc1 (stereo not drawn) [Compound B324] | 70 | 30 | 90 | 0 | 100 | 30 | 80 | 60 | – | – | – | – | – | – | – | – |
| COCC(C)(C)NC(=O)CC1CC(=O)C(c2c(C)cc(-c3ncc(Cl)cc3F)cc2C)C1=O (stereo not drawn) [Compound B325] | 100 | 100 | 100 | 70 | 100 | 100 | 100 | 100 | – | – | – | – | – | – | – | – |
| Cc1cc(-c2ncc(F)cn2)cc(C)c1C1C(=O)CC(CC(=O)NC/C=C\Br)C1=O (stereo not drawn) [Compound B326] | 100 | 100 | 100 | 80 | 100 | 100 | 100 | 100 | – | – | – | – | – | – | – | – |
| COCC(C)(C)NC(=O)CC1CC(=O)C(c2c(C)cc(-c3ncc(F)cn3)cc2C)C1=O (stereo not drawn) [Compound B327] | 100 | 100 | 100 | 80 | 100 | 100 | 90 | 100 | – | – | – | – | – | – | – | – |
| C=CC(C)NC(=O)CC1CC(=O)C(c2c(C)cc(-c3ncc(F)cn3)cc2C)C1=O (stereo not drawn) [Compound B328] | 100 | 100 | 100 | 100 | 100 | 100 | 100 | 100 | – | – | – | – | – | – | – | – |
| COCC(C)(C)NC(=O)CC1CC(=O)C(c2c(C)cc(-c3ncc(F)cc3F)cc2C)C1=O (stereo not drawn) [Compound B329] | 100 | 100 | 100 | 80 | 100 | 100 | 100 | 100 | – | – | – | – | – | – | – | – |
| C=CC(C)NC(=O)CC1CC(=O)C(c2c(C)cc(-c3ncc(F)cc3F)cc2C)C1=O (stereo not drawn) [Compound B330] | 100 | 100 | 100 | 100 | 100 | 100 | 100 | 100 | – | – | – | – | – | – | – | – |
| Cc1cc(-c2ncc(F)cn2)cc(C)c1C1C(=O)CC(CC(=O)N(C)C(C)(C)C)C1=O (stereo not drawn) [Compound B331] | 90 | 100 | 100 | 90 | 100 | 100 | 100 | 100 | – | – | – | – | – | – | – | – |
| COCC(C)NC(=O)CC1CC(=O)C(c2c(C)cc(-c3ncc(F)cn3)cc2C)C1=O (stereo not drawn) [Compound B332] | 100 | 100 | 100 | 100 | 100 | 100 | 100 | 100 | – | – | – | – | – | – | – | – |
| C#CCNC(=O)CC1CC(=O)C(c2c(C)cc(-c3ncc(F)cn3)cc2C)C1=O (stereo not drawn) [Compound B333] | 100 | 100 | 40 | 100 | 100 | 100 | 90 | 100 | – | – | – | – | – | – | – | – |
| C#CCN(C)C(=O)CC1CC(=O)C(c2c(C)cc(-c3ncc(F)cn3)cc2C)C1=O (stereo not drawn) [Compound B334] | – | – | – | – | – | – | – | – | 100 | 100 | 100 | 100 | 100 | 100 | 90 | 100 |
| COCC(C)NC(=O)CC1CC(=O)C(c2c(C)cc(-c3ncc(F)cc3F)cc2C)C1=O (stereo not drawn) [Compound B335] | – | – | – | – | – | – | – | – | 100 | 100 | 100 | 100 | 100 | 90 | 100 | 100 |
| C#CCNC(=O)CC1CC(=O)C(c2c(C)cc(-c3ncc(F)cc3F)cc2C)C1=O (stereo not drawn) [Compound B336] | – | – | – | – | – | – | – | – | 100 | 100 | 100 | 100 | 100 | 100 | 100 | 100 |
| Cc1cc(-c2ncc(Cl)cn2)cc(C)c1C1C(=O)CC(CC(=O)NCc2cccc(F)c2)C1=O (stereo not drawn) [Compound B337] | – | – | – | – | – | – | – | – | 100 | 90 | 100 | 90 | 100 | 90 | 100 | 90 |
